According to PubChem BioAssay (NCI):
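Values below derive from 48-hour exposures of cells grown in 96-well plates, with endpoints linearly interpolated between the two concentrations bracketing the appropriate inhibition level. The concentration for 50% growth inhibition is given as GI50. Definition used: TGI = concentration required for complete inhibition of growth.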

Tests used:
Test in all cases: growth of human tumour cells (NCI), 48 h
SN12C renal = tested on: SN12C renal
NCI-H23 lung = tested on: NCI-H23 lung
T-47D breast = tested on: T-47D breast
SK-MEL-28 melanoma = tested on: SK-MEL-28 melanoma
786-0 renal = tested on: 786-0 renal
OVCAR-4 ovarian = tested on: OVCAR-4 ovarian
CAKI-1 renal = tested on: CAKI-1 renal
SK-OV-3 ovarian = tested on: SK-OV-3 ovarian
DU-145 prostate = tested on: DU-145 prostate
MDA-MB-231 breast = tested on: MDA-MB-231 breast
MALME-3M melanoma = tested on: MALME-3M melanoma
TK-10 renal = tested on: TK-10 renal
SR leukemia = tested on: SR leukemia
EKVX NSCLC = tested on: EKVX NSCLC
ACHN renal = tested on: ACHN renal
NCI-H460 lung = tested on: NCI-H460 lung
SF-539 CNS = tested on: SF-539 CNS
SNB-75 CNS = tested on: SNB-75 CNS
IGROV1 ovarian = tested on: IGROV1 ovarian
UACC-62 melanoma = tested on: UACC-62 melanoma
MDA-MB-435 = tested on: MDA-MB-435
OVCAR-8 ovarian = tested on: OVCAR-8 ovarian
LOX IMVI melanoma = tested on: LOX IMVI melanoma
PC-3 prostate = tested on: PC-3 prostate
BT-549 breast = tested on: BT-549 breast
SK-MEL-5 melanoma = tested on: SK-MEL-5 melanoma
SNB-19 CNS = tested on: SNB-19 CNS
SF-268 CNS = tested on: SF-268 CNS
CCRF-CEM leukemia = tested on: CCRF-CEM leukemia
A498 renal = tested on: A498 renal
MCF7 breast = tested on: MCF7 breast
HCT-15 colon = tested on: HCT-15 colon
RPMI-8226 leukemia = tested on: RPMI-8226 leukemia
UO-31 renal = tested on: UO-31 renal
HOP-92 NSCLC = tested on: HOP-92 NSCLC
M14 melanoma = tested on: M14 melanoma
COLO 205 colon = tested on: COLO 205 colon
NCI-H226 lung = tested on: NCI-H226 lung
U251 CNS = tested on: U251 CNS
HT29 colon = tested on: HT29 colon
OVCAR-5 ovarian = tested on: OVCAR-5 ovarian
RXF 393 renal = tested on: RXF 393 renal
SF-295 CNS = tested on: SF-295 CNS
HS 578T breast = tested on: HS 578T breast
UACC-257 melanoma = tested on: UACC-257 melanoma
SK-MEL-2 melanoma = tested on: SK-MEL-2 melanoma
NCI-H522 lung = tested on: NCI-H522 lung
MOLT-4 leukemia = tested on: MOLT-4 leukemia
HCT-116 colon = tested on: HCT-116 colon
SW-620 colon = tested on: SW-620 colon
OVCAR-3 ovarian = tested on: OVCAR-3 ovarian
K-562 leukemia = tested on: K-562 leukemia
HL-60(TB) leukemia = tested on: HL-60(TB) leukemia
A549 NSCLC = tested on: A549 NSCLC
NCI/ADR-RES ovarian = tested on: NCI/ADR-RES ovarian
KM12 colon = tested on: KM12 colon
HOP-62 NSCLC = tested on: HOP-62 NSCLC
HCC-2998 colon = tested on: HCC-2998 colon

COc1ccc2c(c1)c(/C=N/Nc1ccnc3cc(Cl)ccc13)cn2C
GI50 (SN12C renal): 439 nM
TGI (SN12C renal): 961 nM
GI50 (NCI-H23 lung): 214 nM
TGI (NCI-H23 lung): 556 nM
GI50 (T-47D breast): 227 nM
TGI (T-47D breast): 599 nM
GI50 (SK-MEL-28 melanoma): 1840 nM
TGI (SK-MEL-28 melanoma): 3460 nM
GI50 (786-0 renal): 175 nM
TGI (786-0 renal): 317 nM
GI50 (OVCAR-4 ovarian): 681 nM
TGI (OVCAR-4 ovarian): 1700 nM
GI50 (CAKI-1 renal): 1490 nM
TGI (CAKI-1 renal): 2890 nM
GI50 (SK-OV-3 ovarian): 1570 nM
TGI (SK-OV-3 ovarian): 3140 nM
GI50 (DU-145 prostate): 192 nM
TGI (DU-145 prostate): 349 nM
GI50 (MDA-MB-231 breast): 203 nM
TGI (MDA-MB-231 breast): 444 nM
GI50 (MALME-3M melanoma): 1470 nM
TGI (MALME-3M melanoma): 3270 nM
GI50 (TK-10 renal): 1240 nM
TGI (TK-10 renal): 2780 nM
GI50 (SR leukemia): 143 nM
TGI (SR leukemia): 521 nM
GI50 (EKVX NSCLC): 1510 nM
TGI (EKVX NSCLC): 3190 nM
GI50 (ACHN renal): 683 nM
TGI (ACHN renal): 1560 nM
GI50 (NCI-H460 lung): 193 nM
TGI (NCI-H460 lung): 357 nM
GI50 (SF-539 CNS): 612 nM
TGI (SF-539 CNS): 1250 nM
GI50 (SNB-75 CNS): 1320 nM
TGI (SNB-75 CNS): 2800 nM
GI50 (IGROV1 ovarian): 176 nM
TGI (IGROV1 ovarian): 345 nM
GI50 (UACC-62 melanoma): 1730 nM
TGI (UACC-62 melanoma): 3520 nM
GI50 (MDA-MB-435): 186 nM
TGI (MDA-MB-435): 354 nM
GI50 (OVCAR-8 ovarian): 202 nM
TGI (OVCAR-8 ovarian): 440 nM
GI50 (LOX IMVI melanoma): 183 nM
TGI (LOX IMVI melanoma): 352 nM
GI50 (PC-3 prostate): 517 nM
TGI (PC-3 prostate): 1290 nM
GI50 (BT-549 breast): 1890 nM
TGI (BT-549 breast): 3540 nM
GI50 (SK-MEL-5 melanoma): 1640 nM
TGI (SK-MEL-5 melanoma): 3180 nM
GI50 (SNB-19 CNS): 648 nM
TGI (SNB-19 CNS): 2090 nM
GI50 (SF-268 CNS): 1660 nM
TGI (SF-268 CNS): 3460 nM
GI50 (CCRF-CEM leukemia): 234 nM
TGI (CCRF-CEM leukemia): 589 nM
GI50 (A498 renal): 1830 nM
TGI (A498 renal): 3470 nM
GI50 (MCF7 breast): 164 nM
TGI (MCF7 breast): 327 nM
GI50 (HCT-15 colon): 200 nM
TGI (HCT-15 colon): 410 nM
GI50 (RPMI-8226 leukemia): 233 nM
TGI (RPMI-8226 leukemia): 565 nM
GI50 (UO-31 renal): 1390 nM
TGI (UO-31 renal): 2850 nM
GI50 (HOP-92 NSCLC): 823 nM
TGI (HOP-92 NSCLC): 2490 nM
GI50 (M14 melanoma): 992 nM
TGI (M14 melanoma): 2600 nM
GI50 (COLO 205 colon): 578 nM
TGI (COLO 205 colon): 1800 nM
GI50 (NCI-H226 lung): 1820 nM
TGI (NCI-H226 lung): 4310 nM
GI50 (U251 CNS): 173 nM
TGI (U251 CNS): 322 nM
GI50 (HT29 colon): 176 nM
TGI (HT29 colon): 325 nM
GI50 (OVCAR-5 ovarian): 609 nM
TGI (OVCAR-5 ovarian): 1190 nM
GI50 (RXF 393 renal): 1260 nM
TGI (RXF 393 renal): 2900 nM
GI50 (SF-295 CNS): 1110 nM
TGI (SF-295 CNS): 3150 nM
GI50 (HS 578T breast): 1810 nM
TGI (HS 578T breast): 3880 nM
GI50 (UACC-257 melanoma): 1780 nM
TGI (UACC-257 melanoma): 3660 nM
GI50 (SK-MEL-2 melanoma): 1700 nM
TGI (SK-MEL-2 melanoma): 3280 nM
GI50 (NCI-H522 lung): 563 nM
TGI (NCI-H522 lung): 1280 nM
GI50 (MOLT-4 leukemia): 215 nM
TGI (MOLT-4 leukemia): 478 nM
GI50 (HCT-116 colon): 176 nM
TGI (HCT-116 colon): 324 nM
GI50 (SW-620 colon): 185 nM
TGI (SW-620 colon): 360 nM
GI50 (OVCAR-3 ovarian): 1180 nM
TGI (OVCAR-3 ovarian): 2440 nM
GI50 (K-562 leukemia): 193 nM
TGI (K-562 leukemia): 382 nM
GI50 (HL-60(TB) leukemia): 231 nM
TGI (HL-60(TB) leukemia): 533 nM
GI50 (A549 NSCLC): 181 nM
TGI (A549 NSCLC): 347 nM
GI50 (NCI/ADR-RES ovarian): 600 nM
TGI (NCI/ADR-RES ovarian): 1480 nM
GI50 (KM12 colon): 194 nM
TGI (KM12 colon): 384 nM
GI50 (HOP-62 NSCLC): 1450 nM
TGI (HOP-62 NSCLC): 3300 nM
GI50 (HCC-2998 colon): 369 nM
TGI (HCC-2998 colon): 1190 nM
